Patent publication US8404643B2, “Metastin derivatives and use thereof” (priority 2005, dated 2013)
Square brackets hold non-standard residues; d marks the D form. Peptide text beside a SMILES is read from it. pY = N[C@@H](Cc1ccc(OP(=O)(O)O)cc1)C(=O)O; Phe(3-F) = N[C@@H](Cc1cccc(F)c1)C(=O)O; Phe(4-F) = N[C@@H](Cc1ccc(F)cc1)C(=O)O; Phe(2-F) = N[C@@H](Cc1ccccc1F)C(=O)O; Arg(Me) = CNC(=N)NCCC[C@H](N)C(=O)O; Hyp = O=C(O)[C@@H]1C[C@@H](O)CN1; dNMeA = CN[C@H](C)C(=O)O; Aib = CC(C)(N)C(=O)O; Ahx = NCCCCCC(=O)O; azaGly = NNC(=O)O; Sar = CNCC(=O)O

Biological target: T1, hOT7T175 (Homo sapiens, UniProt Q969F8)
T1 construct: expressed in transfected cells
T1 sequence (Q969F8 whole entry L364H): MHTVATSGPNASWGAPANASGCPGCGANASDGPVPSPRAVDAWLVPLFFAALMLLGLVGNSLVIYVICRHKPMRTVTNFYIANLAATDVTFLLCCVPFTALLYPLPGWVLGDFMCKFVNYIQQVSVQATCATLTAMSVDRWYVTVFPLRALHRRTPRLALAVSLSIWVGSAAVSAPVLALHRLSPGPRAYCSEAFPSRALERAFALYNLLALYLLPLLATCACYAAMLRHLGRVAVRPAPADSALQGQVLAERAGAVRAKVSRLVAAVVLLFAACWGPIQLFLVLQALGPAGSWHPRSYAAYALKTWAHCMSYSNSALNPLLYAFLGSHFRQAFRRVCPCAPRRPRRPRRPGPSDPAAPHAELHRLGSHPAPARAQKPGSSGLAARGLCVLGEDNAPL
Assay: Assay for intracellular Ca ion level-increasing activity using FLIPR
Type: cell-based
Details: hOT7T175/CHO cells, relative to Metastin (1-54)
Method in brief: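 CHO/dhfr− cells stably transfected with hOT7T175, selected for high metastin response, loaded with Fluo3-AM for 1 h at 37 °C in HANKS/HBSS (pH 7.4) with probenecid. Peptides were diluted from 1×10^−3 M DMSO stock into HANKS/HBSS with 2.5 mM probenecid, 0.2% BSA, 0.1% CHAPS; intracellular Ca rise read by FLIPR.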

Row | Specific Activity: intracellular Ca ion level-increasing activity [specific activity to Metastin (1-54)] | Compound
1 | 3.1 | CNC(=N)NCCC[C@H](NC(=O)[C@H](CC(C)C)NC(=O)NNC(=O)[C@H](Cc1ccccc1)NC(=O)[C@@H](NC(=O)[C@H](CC(N)=O)NC(=O)CNC(=O)[C@@H](Cc1ccc(O)cc1)NC(C)=O)[C@@H](C)O)C(=O)N[C@@H](Cc1c[nH]c2ccccc12)C(N)=O [Compound No. 726, Ac-D-Tyr-Gly-Asn-Thr-Phe-AzaGly-Leu-Arg(Me)-Trp-NH2] (Ac-[dY]GNTF[azaGly]L[Arg(Me)]W-NH2)
2 | 1.5 | CNC(=N)NCCC[C@H](NC(=O)[C@H](CC(C)C)NC(=O)NNC(=O)[C@H](Cc1ccccc1)NC(=O)[C@@H](NC(=O)[C@H](CC(N)=O)NC(=O)C(C)(C)NC(=O)[C@@H](Cc1ccc(O)cc1)NC(C)=O)[C@@H](C)O)C(=O)N[C@@H](Cc1c[nH]c2ccccc12)C(N)=O [Compound No. 727, Ac-D-Tyr-Aib-Asn-Thr-Phe-AzaGly-Leu-Arg(Me)-Trp-NH2] (Ac-[dY][Aib]NTF[azaGly]L[Arg(Me)]W-NH2)
3 | 1.8 | CNC(=N)NCCC[C@H](NC(=O)[C@H](CC(C)C)NC(=O)NNC(=O)[C@H](Cc1ccccc1)NC(=O)[C@@H](NC(=O)[C@H](CC(N)=O)NC(=O)[C@@H](Cc1ccc(O)cc1)NC(C)=O)[C@@H](C)O)C(=O)N[C@@H](Cc1c[nH]c2ccccc12)C(N)=O [Compound No. 777, Ac-D-Tyr-Asn-Thr-Phe-AzaGly-Leu-Arg(Me)-Trp-NH2] (Ac-[dY]NTF[azaGly]L[Arg(Me)]W-NH2)
4 | 3.4 | CNC(=N)NCCC[C@H](NC(=O)[C@H](CC(C)C)NC(=O)NNC(=O)[C@H](Cc1ccccc1F)NC(=O)[C@@H](NC(=O)[C@H](CC(N)=O)NC(=O)C(C)(C)NC(=O)[C@@H](Cc1ccc(O)cc1)NC(C)=O)[C@@H](C)O)C(=O)N[C@@H](Cc1c[nH]c2ccccc12)C(N)=O [Compound No. 784, Ac-D-Tyr-Aib-Asn-Thr-Phe(2F)-AzaGly-Leu-Arg(Me)-Trp-NH2] (Ac-[dY][Aib]NT[Phe(2-F)][azaGly]L[Arg(Me)]W-NH2)
5 | 3.2 | CNC(=N)NCCC[C@H](NC(=O)[C@H](CC(C)C)NC(=O)NNC(=O)[C@H](Cc1ccccc1)NC(=O)[C@@H](NC(=O)[C@H](CC(N)=O)NC(=O)[C@@H](C)N(C)C(=O)[C@@H](Cc1ccc(O)cc1)NC(C)=O)[C@@H](C)O)C(=O)N[C@@H](Cc1c[nH]c2ccccc12)C(N)=O [Compound No. 732, Ac-D-Tyr-D-NMeAla-Asn-Thr-Phe-AzaGly-Leu-Arg(Me)-Trp-NH2] (Ac-[dY][dNMeA]NTF[azaGly]L[Arg(Me)]W-NH2)
6 | 2.3 | CNC(=N)NCCC[C@H](NC(=O)[C@H](CC(C)C)NC(=O)NNC(=O)[C@H](Cc1ccc(F)cc1)NC(=O)[C@@H](NC(=O)[C@H](CC(N)=O)NC(=O)CNC(=O)[C@@H](Cc1ccc(O)cc1)NC(C)=O)[C@@H](C)O)C(=O)N[C@@H](Cc1c[nH]c2ccccc12)C(N)=O [Compound No. 790, Ac-D-Tyr-Gly-Asn-Thr-Phe(4F)-AzaGly-Leu-Arg(Me)-Trp-NH2] (Ac-[dY]GNT[Phe(4-F)][azaGly]L[Arg(Me)]W-NH2)
7 | 3.2 | CNC(=N)NCCC[C@H](NC(=O)[C@H](CC(C)C)NC(=O)NNC(=O)[C@H](Cc1cccc(F)c1)NC(=O)[C@@H](NC(=O)[C@H](CC(N)=O)NC(=O)CNC(=O)[C@@H](Cc1ccc(O)cc1)NC(C)=O)[C@@H](C)O)C(=O)N[C@@H](Cc1c[nH]c2ccccc12)C(N)=O [Compound No. 785, Ac-D-Tyr-Gly-Asn-Thr-Phe(3F)-AzaGly-Leu-Arg(Me)-Trp-NH2] (Ac-[dY]GNT[Phe(3-F)][azaGly]L[Arg(Me)]W-NH2)

The next lines start with the compound.

Row | Compound | Specific Activity: intracellular Ca ion level-increasing activity [specific activity to Metastin (1-54)]
8 | CNC(=N)NCCC[C@H](NC(=O)[C@H](CC(C)C)NC(=O)NNC(=O)[C@H](Cc1ccccc1)NC(=O)[C@@H](NC(=O)[C@H](CC(N)=O)NC(=O)CN(C)C(=O)[C@@H](Cc1ccc(O)cc1)NC(C)=O)[C@@H](C)O)C(=O)N[C@@H](Cc1c[nH]c2ccccc12)C(N)=O [Compound No. 731, Ac-D-Tyr-Sar-Asn-Thr-Phe-AzaGly-Leu-Arg(Me)-Trp-NH2] (Ac-[dY][Sar]NTF[azaGly]L[Arg(Me)]W-NH2) | 8.8
9 | CNC(=N)NCCC[C@H](NC(=O)[C@H](CC(C)C)NC(=O)NNC(=O)[C@H](Cc1ccccc1)NC(=O)[C@@H]1C[C@@H](O)CN1C(=O)[C@H](CC(N)=O)NC(=O)[C@@H]1C[C@@H](O)CN1C(=O)[C@@H](Cc1ccc(O)cc1)NC(C)=O)C(=O)N[C@@H](Cc1c[nH]c2ccccc12)C(N)=O [Compound No. 810, Ac-D-Tyr-Hyp-Asn-Hyp-Phe-AzaGly-Leu-Arg(Me)-Trp-NH2] (Ac-[dY][Hyp]N[Hyp]F[azaGly]L[Arg(Me)]W-NH2) | 1.5
10 | CNC(=N)NCCC[C@H](NC(=O)[C@H](CC(C)C)NC(=O)NNC(=O)[C@H](Cc1cccc(F)c1)NC(=O)[C@@H](NC(=O)[C@H](CC(N)=O)NC(=O)[C@@H](Cc1c[nH]c2ccccc12)NC(=O)[C@@H](Cc1ccc(O)cc1)NC(C)=O)[C@@H](C)O)C(=O)N[C@@H](Cc1c[nH]c2ccccc12)C(N)=O [Compound No. 750, Ac-D-Tyr-D-Trp-Asn-Thr-Phe(3F)-AzaGly-Leu-Arg(Me)-Trp-NH2] (Ac-[dY][dW]NT[Phe(3-F)][azaGly]L[Arg(Me)]W-NH2) | 1.0
11 | Ac-D-Tyr-Tyr(PO3H2)-Asn-Thr-Phe-AzaGly-Leu-Arg(Me)-Trp-NH2 (Ac-[dY][pY]NTF[azaGly]L[Arg(Me)]W-NH2; SMILES CNC(=N)NCCC[C@H](NC(=O)[C@H](CC(C)C)NC(=O)NNC(=O)[C@H](Cc1ccccc1)NC(=O)[C@@H](NC(=O)[C@H](CC(N)=O)NC(=O)[C@H](Cc1ccc(OP(=O)(O)O)cc1)NC(=O)[C@@H](Cc1ccc(O)cc1)NC(C)=O)[C@@H](C)O)C(=O)N[C@@H](Cc1c[nH]c2ccccc12)C(N)=O) [Compound No. 775] | 1.3
12 | CNC(=N)NCCC[C@H](NC(=O)[C@H](CC(C)C)NC(=O)NNC(=O)[C@H](Cc1ccccc1)NC(=O)[C@@H](NC(=O)[C@H](CC(N)=O)NC(=O)[C@@H](CC(=O)O)NC(=O)[C@@H](Cc1ccc(O)cc1)NC(C)=O)[C@@H](C)O)C(=O)N[C@@H](Cc1c[nH]c2ccccc12)C(N)=O [Compound No. 735, Ac-D-Tyr-D-Asp-Asn-Thr-Phe-AzaGly-Leu-Arg(Me)-Trp-NH2] (Ac-[dY][dD]NTF[azaGly]L[Arg(Me)]W-NH2) | 3.4
13 | CNC(=N)NCCC[C@H](NC(=O)[C@H](CC(C)C)NC(=O)NNC(=O)[C@H](Cc1ccccc1)NC(=O)[C@@H](NC(=O)[C@H](CCC(N)=O)NC(=O)[C@@H]1C[C@@H](O)CN1C(=O)[C@@H](Cc1ccc(O)cc1)NC(C)=O)[C@@H](C)O)C(=O)N[C@@H](Cc1c[nH]c2ccccc12)C(N)=O [Compound No. 843, Ac-D-Tyr-Hyp-Gln-Thr-Phe-AzaGly-Leu-Arg(Me)-Trp-NH2] (Ac-[dY][Hyp]QTF[azaGly]L[Arg(Me)]W-NH2) | 0.8
14 | CNC(=N)NCCC[C@H](NC(=O)[C@H](CC(C)C)NC(=O)NNC(=O)[C@H](Cc1ccccc1F)NC(=O)[C@@H](NC(=O)[C@H](CC(N)=O)NC(=O)[C@@H](Cc1c[nH]c2ccccc12)NC(=O)[C@@H](Cc1ccc(O)cc1)NC(C)=O)[C@@H](C)O)C(=O)N[C@@H](Cc1c[nH]c2ccccc12)C(N)=O [Compound No. 749, Ac-D-Tyr-D-Trp-Asn-Thr-Phe(2F)-AzaGly-Leu-Arg(Me)-Trp-NH2] (Ac-[dY][dW]NT[Phe(2-F)][azaGly]L[Arg(Me)]W-NH2) | 0.5
15 | CNC(=N)NCCC[C@H](NC(=O)[C@H](CC(C)C)NC(=O)NNC(=O)[C@H](Cc1ccccc1)NC(=O)[C@H](NC(=O)[C@H](CC(N)=O)NC(=O)[C@@H]1C[C@@H](O)CN1C(=O)[C@@H](Cc1ccc(O)cc1)NC(C)=O)[C@H](C)O)C(=O)N[C@@H](Cc1c[nH]c2ccccc12)C(N)=O [Compound No. 846, Ac-D-Tyr-Hyp-Asn-D-Thr-Phe-AzaGly-Leu-Arg(Me)-Trp-NH2] (Ac-[dY][Hyp]N[dT]F[azaGly]L[Arg(Me)]W-NH2) | 0.9
16 | CNC(=N)NCCC[C@H](NC(=O)[C@H](CC(C)C)NC(=O)NNC(=O)[C@H](Cc1ccccc1)NC(=O)[C@@H](NC(=O)[C@H](CC(N)=O)NC(=O)[C@@H](CCC(N)=O)NC(=O)[C@@H](Cc1ccc(O)cc1)NC(C)=O)[C@@H](C)O)C(=O)N[C@@H](Cc1c[nH]c2ccccc12)C(N)=O [Compound No. 738, Ac-D-Tyr-D-Gln-Asn-Thr-Phe-AzaGly-Leu-Arg(Me)-Trp-NH2] (Ac-[dY][dQ]NTF[azaGly]L[Arg(Me)]W-NH2) | 1.4
17 | CNC(=N)NCCC[C@H](NC(=O)[C@H](CC(C)C)NC(=O)NNC(=O)[C@H](Cc1ccccc1)NC(=O)[C@@H](NC(=O)[C@H](CC(N)=O)NC(=O)CCCCCN)[C@@H](C)O)C(=O)N[C@@H](Cc1c[nH]c2ccccc12)C(N)=O [Compound No. 712, Acp-Asn-Thr-Phe-AzaGly-Leu-Arg(Me)-Trp-NH2] (H-[Ahx]NTF[azaGly]L[Arg(Me)]W-NH2) | 8.9
18 | CNC(=N)NCCC[C@H](NC(=O)[C@H](CC(C)C)NC(=O)NNC(=O)[C@H](Cc1ccccc1)NC(=O)[C@@H](NC(=O)[C@H](CC(N)=O)NC(=O)[C@@H](Cc1cnc[nH]1)NC(=O)[C@@H](Cc1ccc(O)cc1)NC(C)=O)[C@@H](C)O)C(=O)N[C@@H](Cc1c[nH]c2ccccc12)C(N)=O [Compound No. 739, Ac-D-Tyr-D-His-Asn-Thr-Phe-AzaGly-Leu-Arg(Me)-Trp-NH2] (Ac-[dY][dH]NTF[azaGly]L[Arg(Me)]W-NH2) | 1.6
